# Tested on: LLC1 lung carcinoma
# Assay: LLC1 tumor model in WT mice
# Format: in vivo
# Procedure: FIG. 6: Usp22 inhibitor administration enhances antitumor immunity. A, Structure of compound CS30 (Usp22i-S02). B, FOXP3 MFI in WT and 22KO of Treg cells after treatment with 20 mg/kg of Usp22i-S02 in vivo (n=3). C, Representative flow cytometry plot of FOXP3+CD25+ MFI of CD4+ peripheral cells of mice treated with 20 mg/kg of Usp22i-S02 relative to control (n=5). D, Graphical representation of Foxp3 MFI upon Usp22i-S02 administration (n=5). E, Tumor growth curve of LLC1 cells subcutaneously injected in the flank of WT mice with or without the addition of 20 mg/kg/time of the Usp22 inhibitor starting at day 15, in 100 μL of oil (n=4). F-G, Representative flow cytometry plot and graphical representation of % infiltration of CD4+ and CD8+ T cells within the tumor (n=4). H, Representative histogram plot and graphical representation of itTreg Foxp3 MFI (n=4). I, MFI of itTreg suppressive markers (n=3-4). J, Percent Foxp3+IFNg+ itTreg cells in control and Usp22-S02 treated mice (n=3-4). B, D-E, G, H-I Two-way ANOVA with multiple comparisons between rows was performed to determine statistical significance. J, Unpaired two tailed T test was performed to determine significance. All data are presented as mean±stdev. NS, not significant. *P<0.05, **P<0.01, ***P<0.001, ****P<0.0001.
# FIG. 16: Usp22i-S02 has little effect on naïve mice, yet enhances anti-tumor immunity in LLC1-challenged mice. A, Body weight of Usp22i-S02 treated mice verses DMSO treated controls over the course of treatment (n=4). A-F. Injections were twice a day for 3 consecutive days at 10 mg/kg (n=4). B, Percent of cell populations in naïve mice treated with Usp22i-S02 relative to DMSO control (n=3-4). C, Percent of KI-67+ cells in various compartments in naïve mice treated with Usp22i-S02 relative to DMSO control (n=3-4). D, Percent CD44^hiCD62L^10 in T cell populations gated on CD45+ cells in naïve mice treated with Usp22i-S02 relative to DMSO control (n=3). E, Percent Annexin+PI+ T cells gates on CD45+ cells in naïve mice treated with Usp22i-S02 relative to DMSO control (n=4). […]
smiles,measurement,setting,value
"N#Cc1c2c(c(Nc3ccccc3)n3c1nc1ccccc13)CCCC2 [Chemical S02, 11-anilino-7,8,9,10-tetrahydro-benzimidazo [1,2-b] isoquinoline-6-carbonitrile]",intratumoral Foxp3+ Treg percentage,"LLC1 tumors, not splenic",significantly decreased
same,Teff cell tumor infiltration,established LLC1 tumors,significant increase in Teff cell tumor infiltration
same,tumor rejection,"established LLC1 tumors, 20 mg/kg/time vs untreated",striking tumor rejection

# Source: US20240238274A1, “INHIBITORS OF UBIQUITIN SPECIFIC PEPTIDASE 22 (USP22) AND USES THEREOF FOR TREATING DISEASE AND DISORDERS” (Northwestern University, priority 2021, published 2024)
